Test results reported in patent US20260364210A1, “COMPOSITIONS AND METHODS FOR TRANSGLUTAMINASE-MEDIATED ENDOCYTOSIS” (The Board of Trustees of the Leland Stanford Junior …, priority 2022, published 2026).
Residues, ends and D or L forms follow the SMILES beside them.

Columns and labels:
[1] = tested on: NRK cells; experiment: Intracellular payload (Cy5) release in NRK cells with or without cathepsin B inhibitor; type: cell-based, rat
Method: FIG. 13A-13B: (A) HB-2108 is strongly endocytosed and cleaved leading to diffuse staining, (B) Inhibiting Cathepsin B mitigates diffuse pattern.
We synthesized HB2108, by linking AcPQLPF to Cy5 via a cathepsin-labile valine-citrulline linker. NRK cells were then treated with HB2108 and α2M in the presence and absence of a cathepsin B inhibitor.

[2] = target: T1, human TG2 (Homo sapiens, UniProt P21980); experiment: Steady-state kinetic analysis / TG2 inhibition; type: biochemical; conditions: role: inhibitor, substrate PQLPF and inhibitor concentrations varied
T1 sequence (P21980 1-687): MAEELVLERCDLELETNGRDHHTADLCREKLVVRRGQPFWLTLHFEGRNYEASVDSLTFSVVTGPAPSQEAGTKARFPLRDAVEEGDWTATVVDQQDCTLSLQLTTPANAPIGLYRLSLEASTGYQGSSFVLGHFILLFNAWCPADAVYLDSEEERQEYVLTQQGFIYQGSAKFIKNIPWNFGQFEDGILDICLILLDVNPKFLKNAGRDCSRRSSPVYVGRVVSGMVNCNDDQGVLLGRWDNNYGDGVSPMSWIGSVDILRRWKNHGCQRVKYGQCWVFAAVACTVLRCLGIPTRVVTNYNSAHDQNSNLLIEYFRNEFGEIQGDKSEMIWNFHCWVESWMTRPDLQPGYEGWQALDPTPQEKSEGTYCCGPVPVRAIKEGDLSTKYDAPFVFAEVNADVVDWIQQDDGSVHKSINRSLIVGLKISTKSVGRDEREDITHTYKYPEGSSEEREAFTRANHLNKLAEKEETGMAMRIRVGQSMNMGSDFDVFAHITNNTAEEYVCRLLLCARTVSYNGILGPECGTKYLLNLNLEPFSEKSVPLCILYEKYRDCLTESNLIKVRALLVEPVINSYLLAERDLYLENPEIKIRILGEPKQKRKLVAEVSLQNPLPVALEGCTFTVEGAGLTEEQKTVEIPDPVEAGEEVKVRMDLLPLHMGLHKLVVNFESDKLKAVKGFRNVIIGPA
Source text: FIG. 1: Kinetic analysis of TG2 inhibition by HB-225. Both substrate (PQLPF) and inhibitor concentrations were varied.
FIG. 2: Comparison of TG2 inhibition by HB-225 and HB-230. The two compounds have very similar kinetic properties.
Encouraged by this finding, we went on to design and synthesize our target fluorescent probe, HB230, in which a second unnatural amino acid residue, diaminobutyrate (DAB), was installed in place of Leu (L) in HB225. This residue was also predicted to neither be recognized by TG2 nor HLA-DQ2. Attachment of a Sulfo-Cy5 fluorophore via amide linkage to the DAB residue yielded the desired probe.

[3] = tested on: normal rat kidney (NRK) cells; experiment: Uptake of fluorescent probe by NRK cells with or without α2M; type: cell-based
Source text: (C) Fluorescently tagged α2M colocalizes strongly with HB-230.
FIG. 15. Uptake of HB-2121.
Puncta of two distinct sizes were observed.
To verify that HB230 internalization was dependent on TG2 activity, HB258 was designed and synthesized as a control probe. This dihydro-analog is otherwise identical to HB230 but lacks its electrophilic warhead and is therefore unable to irreversibly bond to the active site C277 residue of TG2.

[4] = tested on: carboxypeptidase; experiment: Metabolism by carboxypeptidase; type: in vitro ADME; conditions: role: substrate, subsequent to chymotrypsin
Source text: (§1) FIGS. 14A-14B. Metabolic stability of HB-230 and HB-2121. (A) HB-230 is transformed by chymotrypsin to give the C-terminal carboxylic acid. This metabolite is subsequently cleaved by carboxypeptidase to give the tetrapeptide without the terminal phenylalanine. (B) HB-2121 is stable to both chymotrypsin and carboxypeptidase mediated metabolism.
(§2) HB-2121 is analogous to the TG2 inhibitor/probe HB-230 but with one modification; the primary amide C-terminus of HB-230 was replaced with a tertiary dimethyl amide. This change greatly enhances the gastrointestinal stability of the probe.

[5] = tested on: chymotrypsin; experiment: Metabolism by chymotrypsin; type: in vitro ADME; conditions: role: substrate
Source text: as §1, §2

[6] = tested on: TG2; conditions: role: inhibitor; absence of active site occupancy; Palanski and Khosla, 2018; cited from earlier work
[7] = tested on: α2M; experiment: Internalization of fluorescently labeled α2M by NRK cells in the presence of unlabeled TG2 inhibitors; type: cell-based, rat; conditions: 100 μM cystamine by itself
Method: FIG. 5A-5C: (A) HB-225 induces a dose dependent uptake of fluorescently tagged α2M.
To identify the conformational requirements for high-affinity recognition of TG2 by α2M, fluorescently labeled α2M was added to NRK cell cultures in the presence of different (unlabeled) TG2 inhibitors.

[8] = tested on: NRK cells; experiment: Co-localized endocytosis of Sulfo-Cy5 33-mer gluten peptide and fluorescent α2M in NRK cells; type: cell-based, rat; conditions: Sulfo-Cy5-tagged 33 mer; compared with α2M and HB230
Method: FIGS. 6A-6B: Fluorescently tagged 33 mer peptide (A) induces a similar pattern of internalization of α2M as HB-230 (B).
Thus far, endocytosis of the TG2-α2M complex had exclusively been visualized using peptidic probes that irreversibly label the active site of TG2. To investigate whether transient enzyme-substrate complexes can be efficiently internalized in an α2M-dependent manner, NRK cells were co-incubated with fluorescent α2M and the aforementioned 33-residue gluten peptide (33 mer) tagged with a Sulfo-Cy5 fluorophore.

[9] = tested on: streptavidin; experiment: Endocytosis of fluorescent streptavidin by NRK cells; type: cell-based, rat
Method: FIG. 11: (A) Treating NRK cells with increasing concentrations of HB-3-003 in the presence of fluorescently tagged streptavidin leads to increased internalization of streptavidin after a 90 min treatment. (B) Quantification of dose response.
In order to determine the ability of this pathway to clear specifically targeted proteins from the extracellular environment, we synthesized a pentapeptide harboring the electrophilic warhead and a PEG-4 biotin conjugated to the DAB substituted Y amino acid (HB2110). Streptavidin is expected to bind to the biotin arm of the probe, and thus be endocytosed along with the rest of the complex as previously described. To test this hypothesis NRK cells were treated with 2 μM HB2110 and 1 μM Cy5-conjugated streptavidin.
We also synthesized the equivalent pentapeptide harbouring a Gln residue in the place of the electrophilic warhead, with biotin conjugated to the DAB substituted Y amino acid through a PEG linker (HB3-3). We then assed the ability of cells to endocytose fluorescent streptavidin in the presence of HB3-3 and α2M.

[10] = tested on: cubilin; experiment: Depletion of cell surface cubilin on NRK cells; type: cell-based, rat
Method: FIG. 12A-12C: (A) Treating NRK cells with increasing concentrations of HB-3-002 leads to decrease of cell membrane cubilin after a 90 min treatment. (B) Quantification of dose response.
Cell surface proteins can also be pharmacological targets. Thus we targeted cubilin, the canonical receptor for the intrinsic factor (IF)-vitamin B12 complex. We synthesized a pentapeptide harbouring a Gln residue in the X position, and vitamin B12 conjugated to the DAB substituted Y amino acid through a PEG-5 linker (HB3-2). […] Cubilin is stained using a sheep anti cubilin antibody which recognizes rat cubilin and an ovine Alexa-647 secondary antibody.

[11] = tested on: clathrin mediated endocytosis; experiment: Inhibition of α2M / 33-mer endocytosis by inhibitors of clathrin mediated endocytosis in NRK cells; type: cell-based, rat
Source text: FIG. 7A-7D: (A) Endocytosis of α2M (green) and 33 mer gluten peptide (red) by NRK cells.
Low density lipoprotein (LDL) receptor-related protein 1 (LRP-1, a.k.a., (α2M receptor or CD91), a member of the LDL receptor family, is responsible for receptor-mediated endocytosis of α2M. Although this receptor is expressed on the surface of a wide range of cell types within the body, α2M endocytosis by LRP-1 is only triggered when this ubiquitous plasma protein undergoes a conformational change upon binding to its protease or non-protease ligands (Bres and Faissner, 2019). We sought to establish whether endocytosis of the ternary α2M-TG2-peptide complex was mediated by LRP-1 using pharmacologic inhibitors of clathrin mediated endocytosis.

[12] = high concentrations of both the probe and α2M

CC(=O)N1CCC[C@H]1C(=O)N[C@@H](CCC(N)=O)C(=O)N[C@@H](CC(C)C)C(=O)N1CCC[C@H]1C(=O)N[C@@H](Cc1ccccc1)C(=O)N[C@H](C(=O)N[C@@H](CCCNC(N)=O)C(=O)NCCCCCCNC(=O)CCCCC[N+]1=C(/C=C/C=C/C=C2/N(C)c3ccccc3C2(C)C)C(C)(C)c2ccccc21)C(C)C [HB-2108] (HELM PEPTIDE1{[ac].P.Q.L.P.F.V.[Cit].[CN1/C(=C/C=C/C=C/C2=[N+](CCCCCC(=O)NCCCCCCN[*:1])c3ccccc3C2(C)C)C(C)(C)c2ccccc21]}$$$$V2.0)
Cy5 staining / colocalization with α2M ([1]; absence of cathepsin B inhibitor): very diffuse and no longer colocalizes with α2M
Cy5 staining / colocalization with α2M ([1]; pre-treatment with cathepsin inhibitor): remains strongly colocalized with α2M in the lysosome

CC(=O)N1CCC[C@H]1C(=O)N[C@@H](CC/C=C/C(=O)N(C)C)C(=O)N[C@@H](CC(C)C)C(=O)N1CCC[C@H]1C(=O)N[C@@H](Cc1ccccc1)C(N)=O [HB-225] (HELM PEPTIDE1{[ac].P.[CN(C)C(=O)/C=C/CC[C@H](N[*:1])C(=O)[*:2]].L.P.F.[am]}$$$$V2.0)
Ki [2]: 13 µM
kinact ([2]; read-out: ki (inactivation of TG2) (converted)): 0.000833 s⁻¹

CC(=O)N1CCC[C@H]1C(=O)N[C@@H](CC/C=C/C(=O)N(C)C)C(=O)N[C@@H](CCNC(=O)CCCCC[N+]1=C(/C=C/C=C/C=C2/N(C)c3ccc(S(=O)(=O)O)cc3C2(C)C)C(C)(C)c2cc(S(=O)(=O)[O-])ccc21)C(=O)N1CCC[C@H]1C(=O)N[C@@H](Cc1ccccc1)C(=O)N(C)C [HB-2121]
uptake by NRK cells with or without α-2-macroglobulin ([3]; 2 μM HB-2121, with or without 100 μg/mL α-2-macroglobulin): α2M-enhanced endocytic uptake
metabolism by carboxypeptidase [4]: no subsequent metabolism
metabolism by chymotrypsin [5]: complete resistance to metabolism

NCCSSCCN [Cystamine, cystamine]
inactivation of TG2 [6]: inactivates TG2 by promoting C370-C371 disulfide bond formation
internalization of fluorescent α2M [7]: unable to promote rapid internalization of fluorescent α2M by itself

LQLQPFPQPQLPYPQPQLPYPQPQLPYPQPQPF [33 mer, 33-residue gluten peptide tagged with a Sulfo-Cy5 fluorophore]
co-localized endocytosis with fluorescent α2M [8]: entirely analogous pattern of co-localized endocytosis

CC(=O)N1CCC[C@H]1C(=O)N[C@@H](CCC(N)=O)C(=O)N[C@@H](CCC(=O)NCCOCCOCCNC(=O)CCCC[C@@H]1SC[C@@H]2NC(=O)N[C@@H]21)C(=O)N1CCC[C@H]1C(=O)N[C@@H](Cc1ccccc1)C(N)=O [HB-3-003] (HELM PEPTIDE1{[ac].P.Q.E.P.F.[am]}|CHEM1{[O=C(CCCC[C@@H]1SC[C@@H]2NC(=O)N[C@@H]21)NCCOCCOCCN[*:1]]}$PEPTIDE1,CHEM1,4:R3-1:R1$$$V2.0)
endocytosis of fluorescent streptavidin ([9]; presence of α2M, 90 min): endocytosed in an HB3-3 dose dependent manner

CC(=O)N1CCC[C@H]1C(=O)N[C@@H](CCCCC(=O)N(C)C)C(=O)N[C@@H](CCNC(=O)CCCCC[N+]1=C(/C=C/C=C/C=C2/N(C)c3ccc(S(=O)(=O)O)cc3C2(C)C)C(C)(C)c2cc(S(=O)(=O)[O-])ccc21)C(=O)N1CCC[C@H]1C(=O)N[C@@H](Cc1ccccc1)C(N)=O [HB-258]
appearance of intracellular puncta [3, 12]: only appears as small intracellular puncta
uptake by NRK cells (probe without electrophilic warhead) [3, 12]: does not undergo significant uptake by NRK cells

vitamin B12 [reference compound]
depletion of cubilin by individual components ([10]; component alone): do not promote the depletion of cubilin

methyl-β-cyclodextrin
inhibition of α2M and peptide colocalization as large endocytic puncta ([11]; 12.5 mM MβCD): strong inhibition

O=C(N/N=C/c1cc(O)c(O)cc1O)c1cc2ccccc2cc1O [Dyno-4a]
inhibition of α2M and peptide colocalization as large endocytic puncta ([11]; 20 uM Dyno-4a): strong inhibition

O=C1N=C(NS(=O)(=O)c2cccc3ccccc23)S/C1=C\c1ccc(Br)cc1 [Pitstop-2]
inhibition of α2M and peptide colocalization as large endocytic puncta ([11]; 25 uM Pitstop): strong inhibition

O=C(O)CCCC[C@@H]1SC[C@@H]2NC(=O)N[C@@H]21 [Biotin, reference compound]
uptake of streptavidin by individual components ([9]; component alone, NRK cells): do not lead to increased uptake of streptavidin

B1: RAP: inhibitor of LRP-1 (protein, UniProt P30533 35-357, looked up)
Alpha-2-macroglobulin …: YSREKNQPKPSPKRESGEEFRMEKLNQLWEKAQRLHLPPVRLAELHADLKIQERDELAWKKLKLDGLDEDGEKEARLIRNLNVILAKYGLDGKKDARQVTSNSLSGTQEDGLDDPRLEKLWHKAKTSGKFSGEELDKLWREFLHHKEKVHEYNVLLETLSRTEEIHENVISPSDLSDIKGSVLHSRHTELKEKLRSINQGLDRLRRVSHQGYSTEAEFEEPRVIDLWDLAQSANLTDKELEAFREELKHFEAKIEKHNHYQKQLEIAHEKLRHAESVGDGERVSRSREKHALLEGRTKELGYTVKKHLQDLSGRISRARHNEL
effect of LRP-1 inhibition on depletion of surface cubilin ([10]; LRP-1 inhibited through RAP, HB3-2 with intrinsic factor): mitigates the depletion of surface cubilin
